Columns and labels:
androgen receptor (AR) = target: T1, androgen receptor (AR) (Homo sapiens, UniProt P10275); assay: COS-1 bioassay, inhibition by nonsteroidal antiandrogens of testosterone-induced AR LBD / N-terminal interaction; type: cell-based
T1 construct: The LBD of human AR (containing amino acids 657-919); expressed in transfected cells; host or cells: COS-1 cells (ATCC CRL1650)

[1] = cited from earlier work

T1 sequence (P10275 with tags, fused parts or gaps limits assumed): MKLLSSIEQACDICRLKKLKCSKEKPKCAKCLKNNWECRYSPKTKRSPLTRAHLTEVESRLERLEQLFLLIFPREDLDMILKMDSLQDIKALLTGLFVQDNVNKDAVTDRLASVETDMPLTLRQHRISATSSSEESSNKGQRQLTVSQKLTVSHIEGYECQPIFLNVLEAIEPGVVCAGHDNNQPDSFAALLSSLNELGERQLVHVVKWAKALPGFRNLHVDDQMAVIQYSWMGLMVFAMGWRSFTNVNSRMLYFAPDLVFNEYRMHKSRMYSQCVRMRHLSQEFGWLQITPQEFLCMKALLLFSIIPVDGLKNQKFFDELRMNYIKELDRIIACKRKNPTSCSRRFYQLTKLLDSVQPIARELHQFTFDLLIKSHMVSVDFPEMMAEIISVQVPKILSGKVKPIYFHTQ

Compound	effect on interaction between AR termini / relative luciferase activity (in words) (androgen receptor (AR))	relative luciferase activity as % of activity with testosterone-containing FCS without antiandrogen (androgen receptor (AR); 100 times molar amount of testosterone (10 nmol/L testosterone in FCS))	free fraction of total testosterone in serum [1]
CC(C)(O)C(=O)Nc1ccc([N+](=O)[O-])c(C(F)(F)F)c1 [hydroxyflutamide, 4-hydroxy-α,α,α-trifluoro-2-methyl-4'-nitro-m-propionotoluidide]	suppressed relative luciferase activity	~ 5%	–
C[C@]12CC[C@H]3[C@@H](CCC4=CC(=O)CC[C@@]43C)[C@@H]1CC[C@@H]2O [testosterone, Testosterone]	–	–	2-3%
